Measurements taken from patent publication US20200253917A1 (priority 2017, published 2020).

Legend:
[1] = test system: hair follicles; assay type: in vivo; conditions: backskin of topically treated telogen mice
Description: (§1) FIG. 1A: Mice were shaved at day 50 (Telogen) and topically treated with Phenformin (5 uM) every other day for 2-3 weeks. […] FIG. 1B: Quantification of changes to the hair cycle in treatment and control. Quantification performed across 13 vehicle and 9 Phenformin treated male mice. FIG. 1C: Changes to the thickness of the epidermis, dermis and hypodermis were assessed microscopically and quantified. […] Scale bars for D indicate 25 micrometers.
(§2) FIG. 3A: Mice were shaved at day 50 (Telogen) and topically treated with antimycin A or Rotenone every other day for 2-3 weeks. […] FIG. 3B: Quantification of changes to the hair cycle in treatment and control. Quantification was performed with 13 vehicle treated, 11 Rotenone treated, and 9 Antimycin A treated male animals. FIG. 3C: Changes to the thickness of the epidermis, dermis and hypodermis were assessed microscopically and quantified. FIG. 3D: Immunolocalization was performed to detect evidence of inflammation due to topical application of ETC inhibitors. Both vehicle and ETC inhibitor treated skin was immunostained for phosphor-EGFR ([…]), CD11b (marker of macrophages), and IL6 (Chemokine). Vehicle treated skin from a wounded animal with hyperplastic epidermis was used as a positive control for markers of inflammation. Scale bars indicate 50 micrometers.
These findings were also in stark contrast to previous studies showing that transgenic abrogation of the ETC led to hair follicle degeneration.

[2] = test system: lactate; assay type: in vivo, mice; conditions: topical treatment for 48 hours or 10 days
Description: FIG. 2A: Mice were treated topically with the indicated ETC inhibitor for 48 hours. Total epidermis was isolated, lysed and subjected to LDH activity assay. Relative LDH activity is presented as the rate of activity over 30 min in two different animals. FIG. 2B: Mice were treated topically with ETC inhibitor for 48 hours (TOP) or 10 days (BOTTOM). Total epidermis was isolated, and metabolites were extracted and subjected to metabolomics. Heatmap indicates relative levels of metabolites related to glycolysis and the TCA cycle.
To determine the effect on cellular metabolism of ETC inhibition by Rotenone, Phenformin and Antimycin A, two measures of metabolic pathways were performed. First, LDH activity was quantified on cells isolated from the epidermis treated with ETC inhibitors for 48 hours (FIG. 2A). Next, metabolomics was employed on sorted HFSCs with and without treatment for either 48 hours or 10 days.

[3] = test system: hair follicle stem cells (HFSCs); assay type: in vivo, mice; conditions: topically treated skin, a week after treatment
[4] = test system: hair cycle; assay type: in vivo; conditions: mice shaved at day 50 (Telogen); for pigmentation in response to treatment: topical every other day for 2-3 weeks
Description: as §1, §2
To determine whether manipulation of ETC activity could affect HFSC activation, various inhibitors of ETC components were topically applied to mice during a resting phase of the hair cycle. The topical formulation was prepared by suspending the active ingredient in PLO Ultramax Gel (lecithin organogel). At postnatal day 50, the hair follicle is in telogen, a resting phase where the stem cells of the follicle are quiescent until the start of the next hair cycle at day 70-80. Rotenone, Phenformin, and Antimycin A are established inhibitors of […], respectively. Animals were shaved at postnatal day 47 and treated with the indicated compounds or vehicle on the shaved area every 48 hours for the indicated duration. […]

[5] = test system: hair cycle; assay type: in vivo; conditions: aged mice (at least 17 months), topical every other day for 30 days
Text: (§3) FIGS. 4A and 4B. Treatment with ETC inhibitors can accelerate the hair cycle in aged mice. FIG. 4A: Female mice were shaved at 17 months of age and then treated with vehicle or the indicated ETC inhibitor every other day for up to 30 days. Images taken over time indicate the ETC inhibition promotes a more complete re-growth of hair after shaving in aged mice. Quantification of phenotype emergence from two pairs of animals are presented on the right. Data shown are representative of three independent experiments with 10 mice each.
(§4) As mice age, the hair cycle is known to become protracted such that upon shaving, only portions of the backskin show regrowth of hair within a 1-2 months. Various batches of aged mice (at least 17 months) were treated for 30 days with ETC inhibitors to determine whether this metabolic manipulation could stimulate the hair cycle even in dormant follicles.

[6] = test system: lactate; assay type: in vivo; conditions: aged mice, sorted HFSCs at the end of the hair cycle experiment
Text: as §3, §4

Compound | H and E staining / histological analysis of the hair cycle [1] | lactate levels and glycolytic intermediates (metabolomics) [2] | HFSC activation (Sox9 and Ki-67 immunohistochemistry) [3] | pigmentation and hair growth in response to treatment ([4]; topical Phenformin 5 uM every other day for 2-3 weeks, at 10 and 16 days) | hair regrowth across the backskin after shaving [5] | lactate pool levels (metabolomics) [6] | pigmentation in response to treatment [4]
[H]/N=C(/N)N/C(=N/[H])NCCc1ccccc1 [Phenformin] | advancement of the hair cycle | increase in lactate levels as well as several other glycolytic intermediates | HFSCs became activated | new pigmentation and then hair growth | more complete hair regrowth across the entire backskin | increase in lactate pool levels | –
C=C(C)[C@H]1Cc2c(ccc3c2O[C@@H]2COc4cc(OC)c(OC)cc4[C@@H]2C3=O)O1 [Rotenone] | advancement of the hair cycle | increase in lactate levels as well as several other glycolytic intermediates | HFSCs became activated | – | more complete hair regrowth across the entire backskin | increase in lactate pool levels | new pigmentation
Antimycin A | advancement of the hair cycle | increase in lactate levels as well as several other glycolytic intermediates | HFSCs became activated | – | more complete hair regrowth across the entire backskin | increase in lactate pool levels | new pigmentation
